From the supplement of paper PMC10307832

Tests used:
Assay in all cases: relative viability (nuclei count vs DMSO), 5 days (fraction); higher = more cells survive
ABC-1 = tested on: ABC-1
How it was run: (§1)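 Cells from lung cancer lines were seeded into 1536-well plates and, one day later, dosed by pin tool. Treatments were either a single drug or a fixed dose of an anchor drug with five library-drug doses (not always all listed) in √10 steps. After 5 days, nuclei were stained in a one-step fixation (final 0.05% Triton X-100, 1% formaldehyde, 1 ug/ml Hoechst) and counted on 4× images, and relative viability is the treated-to-vehicle nuclei ratio, as the median of duplicate plates.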

ChaGo-K-1 = tested on: ChaGo-K-1
How it was run: as §1

HCC-44 = tested on: HCC-44
How it was run: as §1

HCC-827 = tested on: HCC-827
How it was run: as §1

LCLC-103H = tested on: LCLC-103H
How it was run: as §1

LU99A = tested on: LU99A
How it was run: as §1

LXF-289 = tested on: LXF-289
How it was run: as §1

NCI-H1395 = tested on: NCI-H1395
How it was run: as §1

NCI-H1666 = tested on: NCI-H1666
How it was run: as §1

NCI-H1755 = tested on: NCI-H1755
How it was run: as §1

NCI-H1792 = tested on: NCI-H1792
How it was run: as §1

NCI-H1793 = tested on: NCI-H1793
How it was run: as §1

NCI-H1944 = tested on: NCI-H1944
How it was run: as §1

NCI-H2126 = tested on: NCI-H2126
How it was run: as §1

NCI-H2347 = tested on: NCI-H2347
How it was run: as §1

NCI-H3122 = tested on: NCI-H3122
How it was run: as §1

NCI-H322M = tested on: NCI-H322M
How it was run: as §1

NCI-H358 = tested on: NCI-H358
How it was run: as §1

NCI-H520 = tested on: NCI-H520
How it was run: as §1

RERF-LC-KJ = tested on: RERF-LC-KJ
How it was run: as §1

SK-LU-1 = tested on: SK-LU-1
How it was run: as §1

Compound `CN1CCN(CCOc2cc(OC3CCOCC3)c3c(Nc4c(Cl)ccc5c4OCO5)ncnc3c2)CC1` [Saracatinib] + Nc1ncn([C@H]2C[C@H](O)[C@@H](CO)O2)c(=O)n1 [Decitabine] (partner 2 µM) has a relative viability (ABC-1; first compound 0.02 µM) of 1.01, a relative viability (ABC-1; first compound 0.2 µM) of 1.04 and a relative viability (ABC-1; first compound 0.6325 µM) of 1.06. For the same compound, the relative viability (ABC-1; first compound 2 µM) was 1.02, the relative viability (ChaGo-K-1; first compound 0.02 µM) was 0.577 and the relative viability (ChaGo-K-1; first compound 0.2 µM) was 0.427. It also gave a relative viability (ChaGo-K-1; first compound 0.6325 µM) of 0.579, a relative viability (ChaGo-K-1; first compound 2 µM) of 0.542 and a relative viability (HCC-44; first compound 0.02 µM) of 0.964. The relative viability (HCC-44; first compound 0.2 µM) was 0.854, the relative viability (HCC-44; first compound 0.6325 µM) was 0.994 and the relative viability (HCC-44; first compound 2 µM) was 0.94. The relative viability (HCC-827; first compound 0.02 µM) was 0.359, the relative viability (HCC-827; first compound 0.2 µM) was 0.225 and the relative viability (HCC-827; first compound 0.6325 µM) was 0.19. The relative viability (HCC-827; first compound 2 µM) was 0.151, the relative viability (LCLC-103H; first compound 0.02 µM) was 0.774 and the relative viability (LCLC-103H; first compound 0.2 µM) was 0.653. The relative viability (LCLC-103H; first compound 0.6325 µM) was 0.72, the relative viability (LCLC-103H; first compound 2 µM) was 0.716 and the relative viability (LU99A; first compound 0.02 µM) was 0.857. The relative viability (LU99A; first compound 0.2 µM) was 0.807, the relative viability (LU99A; first compound 0.6325 µM) was 0.678 and the relative viability (LU99A; first compound 2 µM) was 0.658. The relative viability (LXF-289; first compound 0.02 µM) was 0.327, the relative viability (LXF-289; first compound 0.2 µM) was 0.314 and the relative viability (LXF-289; first compound 0.6325 µM) was 0.387. It also gave a relative viability (LXF-289; first compound 2 µM) of 0.36, a relative viability (NCI-H1395; first compound 0.02 µM) of 0.752 and a relative viability (NCI-H1395; first compound 0.2 µM) of 0.753. The relative viability (NCI-H1395; first compound 0.6325 µM) was 0.737, the relative viability (NCI-H1395; first compound 2 µM) was 0.635 and the relative viability (NCI-H1666; first compound 0.02 µM) was 0.797. It also gave a relative viability (NCI-H1666; first compound 0.2 µM) of 0.671, a relative viability (NCI-H1666; first compound 0.6325 µM) of 0.846 and a relative viability (NCI-H1666; first compound 2 µM) of 0.756. It also gave a relative viability (NCI-H1755; first compound 0.02 µM) of 0.711, a relative viability (NCI-H1755; first compound 0.2 µM) of 0.604 and a relative viability (NCI-H1755; first compound 0.6325 µM) of 0.72. For the same compound, the relative viability (NCI-H1755; first compound 2 µM) was 0.691, the relative viability (NCI-H1792; first compound 0.02 µM) was 0.597 and the relative viability (NCI-H1792; first compound 0.2 µM) was 0.464. It also gave a relative viability (NCI-H1792; first compound 0.6325 µM) of 0.687, a relative viability (NCI-H1792; first compound 2 µM) of 0.522 and a relative viability (NCI-H1793; first compound 0.02 µM) of 0.543. For the same compound, the relative viability (NCI-H1793; first compound 0.2 µM) was 0.338, the relative viability (NCI-H1793; first compound 0.6325 µM) was 0.504 and the relative viability (NCI-H1793; first compound 2 µM) was 0.403. For the same compound, the relative viability (NCI-H1944; first compound 0.02 µM) was 0.423, the relative viability (NCI-H1944; first compound 0.2 µM) was 0.356 and the relative viability (NCI-H1944; first compound 0.6325 µM) was 0.434. The relative viability (NCI-H1944; first compound 2 µM) was 0.371, the relative viability (NCI-H2126; first compound 0.02 µM) was 0.61 and the relative viability (NCI-H2126; first compound 0.2 µM) was 0.567. The relative viability (NCI-H2126; first compound 0.6325 µM) was 0.551, the relative viability (NCI-H2126; first compound 2 µM) was 0.454 and the relative viability (NCI-H2347; first compound 0.02 µM) was 0.629. For the same compound, the relative viability (NCI-H2347; first compound 0.2 µM) was 0.538, the relative viability (NCI-H2347; first compound 0.6325 µM) was 0.595 and the relative viability (NCI-H2347; first compound 2 µM) was 0.578. It also gave a relative viability (NCI-H3122; first compound 0.02 µM) of 0.365, a relative viability (NCI-H3122; first compound 0.2 µM) of 0.375 and a relative viability (NCI-H3122; first compound 0.6325 µM) of 0.314. The relative viability (NCI-H3122; first compound 2 µM) was 0.294, the relative viability (NCI-H322M; first compound 0.02 µM) was 0.79 and the relative viability (NCI-H322M; first compound 0.2 µM) was 0.473. For the same compound, the relative viability (NCI-H322M; first compound 0.6325 µM) was 0.659, the relative viability (NCI-H322M; first compound 2 µM) was 0.409 and the relative viability (NCI-H358; first compound 0.02 µM) was 0.224. The relative viability (NCI-H358; first compound 0.2 µM) was 0.198, the relative viability (NCI-H358; first compound 0.6325 µM) was 0.179 and the relative viability (NCI-H358; first compound 2 µM) was 0.146. The relative viability (NCI-H520; first compound 0.02 µM) was 0.544, the relative viability (NCI-H520; first compound 0.2 µM) was 0.499 and the relative viability (NCI-H520; first compound 0.6325 µM) was 0.434. The relative viability (NCI-H520; first compound 2 µM) was 0.346, the relative viability (RERF-LC-KJ; first compound 0.02 µM) was 0.688 and the relative viability (RERF-LC-KJ; first compound 0.2 µM) was 0.657. The relative viability (RERF-LC-KJ; first compound 0.6325 µM) was 0.734, the relative viability (RERF-LC-KJ; first compound 2 µM) was 0.722 and the relative viability (SK-LU-1; first compound 0.02 µM) was 0.546. The relative viability (SK-LU-1; first compound 0.2 µM) was 0.526, the relative viability (SK-LU-1; first compound 0.6325 µM) was 0.594 and the relative viability (SK-LU-1; first compound 2 µM) was 0.405.
